Measured values as given in patent US20070196902A1, “Method of detecting AZT resistance in HIV” (University of Pittsburgh, priority 2006, published 2007).
Like-named read-outs stand apart in the source and are kept apart here.

Columns and labels:
HIV-1 RT H539N = conditions: H539N mutation; cited from earlier work
Wild-type HIVLAI = assay: Drug susceptibility assay in P4/R5 cells, recombinant virus; assay type: cell-based, HIV-1; conditions: Human immunodeficiency virus 1, P4/R5; Wild-type; mean ± SD, at least three experiments; read-out: IC50
Protocol: (§1) Drug susceptibility assays. NRTI susceptibility was determined in P4/R5 cells as described previously (Parikh, U. M., et al. 2005. Antimicrob. Agents Chemother. 49:1139-44). Briefly, threefold dilutions of inhibitor were added to P4/R5 cells in triplicate and cells were infected with an amount of virus that produced 100 relative units of light (RLU) in no drug, virus control wells. After 48 hours, the cells were lysed (Gal-Screen; Tropix/Applied Biosystems, Foster City, Calif.) and the RLU was measured using a ThermoLabSystems luminometer (Waltham, Mass.). The IC50 and fold-resistance were calculated as described above. IC50 values from at least three independent experiments were log10 transformed and compared for statistically significant differences using the two-sample Student's t test.
Construction of mutant recombinant HIV-1. Mutant recombinant plasmid clones of virus were generated by oligonucleotide site-directed mutagenesis as described previously (Shi, C., and J. W. Mellors. 1997. A recombinant retroviral system for rapid […] analysis of human immunodeficiency virus type 1 susceptibility to reverse transcriptase inhibitors. Antimicrob. Agents Chemother. 41:2781-5), using the p6HRT-MO plasmid. p6HRT-MO contains the entire RT and protease coding sequence as previously described (Le Grice, S. F., and F. Gruninger-Leitch. 1990. Rapid purification of homodimer and heterodimer HIV-1 reverse transcriptase by metal chelate affinity chromatography. Eur. J. Biochem. 187:307-14) and four silent restriction sites (Xma I, Mlu I, Xba I, and NgoM IV from the 5′ to 3′ end of RT at codons 14, 358, 490 and 554, respectively). After site-directed mutagenesis (QIAamp kit, QIAGEN, Valencia, Calif.), the mutated RT was ligated into pxxHIV-1LAI MO that contains the entire genome of HIV-1LAI and the same silent restriction sites as p6HRT-MO. Infectious virus was generated by electroporating the mutated xxHIV-1LAI MO plasmid into MT-2 cells as described above. All mutations in recombinant viruses were confirmed by full-length sequencing of the entire RT coding region.

[1] = system: HIVLAI RT 67N/70R/215F/509L; assay: Drug susceptibility assay in P4/R5 cells, site-directed mutant; assay type: cell-based, HIV-1
[2] = system: HIV-1 RT D549N with TAMs D67N, K70R, T215Y and K219Q; conditions: D549N present with TAMs D67N; cited from earlier work
[3] = system: HIV-1 RT A360I with "classic" TAMs; conditions: A360I present with "classic" TAMs; cited from earlier work
[4] = system: HIV-1 RT N3481 with "classic" TAMs; conditions: N3481 present with "classic" TAMs; cited from earlier work
[5] = system: wild-type HIV-1LAI passaged in MT-2 cells in increasing concentrations of AZT; assay: AZT susceptibility of virus passaged in increasing AZT, selection starting with wild-type HIV-1LAI; single-cycle assay in P4/R5 cells; assay type: cell-based; conditions: for Fold-Resistance: compared to wild-type passaged without AZT
Protocol: Selection of AZT-resistant viruses. Resistant virus was selected in two independent experiments by the passage of wild-type HIVLAI or HIVLAI containing the M41L/L210W/T215Y mutations (AZT^R HIVLAI) in MT-2 cells in increasing concentrations of AZT. To initiate each selection experiment, MT-2 cells (1×10^6) were pretreated for two hours with 0.5 μM and 25 μM AZT for wild-type HIVLAI and AZT^R HIVLAI, respectively, before virus was added. Viral replication was monitored by CPE. At +3/4 CPE (3 or 4 syncytia per field at 100× magnified field), cell-free supernatant was harvested and 0.1 ml of supernatant was added to fresh MT-2 cells to initiate a new passage. The concentration of AZT was doubled every three passages. The selection pressure was increased from an initial AZT concentration of 0.5 μM to a final concentration of 32 μM for wild-type HIVLAI, and from 25 μM to 150 μM for the AZT^R HIVLAI. The concentration of drug required to inhibit viral replication by 50% (IC50) was calculated every five passages to identify changes in AZT susceptibility, and fold-resistance was determined by dividing the IC50 of the mutant virus by the IC50 of wild-type HIV-1LAI. The genotype of the passaged virus was determined as described above.
as §1
Selection of AZT-resistant virus. Two independent AZT selection experiments were conducted. One starting with wild-type HIV-1LAI and the second starting with AZT HIV-1LAI (encoding M41L/L210W/T215Y). Both viruses were serially passaged in MT-2 cells in increasing concentrations of AZT. After every 5 passages, AZT susceptibility was measured in a single-cycle viral replication assay in P4/R5 cells (described in Materials and Methods). Viral RNA was extracted, converted to cDNA and the entire coding region of RT (residues 1-560) was PCR amplified and sequenced to monitor the appearance of mutations. In the selection experiment starting with HIV-1LAI, AZT susceptibility was reduced 66-fold by passage 35 and two polymerase domain TAMs were identified: D67N and K70R (Table 1).

[6] = system: HIV-1 RT G335C with "classic" TAMs; conditions: G335C present with "classic" TAMs; cited from earlier work
[7] = system: HIV-1 RT mutants with A371V and/or Q509L, alone or in combination with TAMs; assay: Drug susceptibility of site-directed mutants, comparisons between mutants with and without A371V/Q509L; assay type: cell-based

For Cc1cn([C@H]2C[C@H](N=[N+]=[N-])[C@@H](CO)O2)c(=O)[nH]c1=O [AZT, 3′-azido-3′-dideoxythymidine], the “increase in resistance (reduced susceptibility)” value (HIV-1 RT H539N) is listed as 180 fold, the IC50 (Wild-type HIVLAI) is listed as 0.2 ± 0.1 µM and the Fold-Resistance ([1]; 67N/70R/215F/509L compared to wild-type) is listed as 128 fold. The IC50 ([1]; Human immunodeficiency virus 1, P4/R5, 67N/70R/215F/509L, mean ± SD) was 28 ± 17 µM, the increase in resistance [2] was 1,230 fold and the “reduction of AZT susceptibility” value [3] was 30 fold. For the same compound, the “reduction of AZT susceptibility” value [4] was 35 fold, the IC50 ([5]; Human immunodeficiency virus 1, MT2, passage 1, AZT concentration 0.5 μM, read-out: IC50) was 0.2 µM and the IC50 ([5]; Human immunodeficiency virus 1, MT2, passage 10, AZT concentration 0.5 μM, read-out: IC50) was 0.3 µM. For the same compound, the IC50 ([5]; Human immunodeficiency virus 1, MT2, passage 20, AZT concentration 0.5 μM, read-out: IC50) was 0.7 µM, the IC50 ([5]; Human immunodeficiency virus 1, MT2, passage 25, AZT concentration 1.0 μM, mutations: None, read-out: IC50) was 0.7 µM and the IC50 ([5]; Human immunodeficiency virus 1, MT2, passage 30, AZT concentration 2.0 μM, D67D/N, K70K/R, read-out: IC50) was 3 µM. For the same compound, the IC50 ([5]; Human immunodeficiency virus 1, MT2, passage 35, AZT concentration 2.0 μM, D67N, K70R, read-out: IC50) was 10 µM, the IC50 ([5]; Human immunodeficiency virus 1, MT2, passage 40, AZT concentration 4.0 μM, D67N, K70R, A371A/V, Q509Q/L, read-out: IC50) was 10 µM and the IC50 ([5]; Human immunodeficiency virus 1, MT2, passage 55, AZT concentration 16 μM, D67N, K70R, T215T/I, A371A/V, Q509Q/L, read-out: IC50) was 39 µM. For the same compound, the IC50 ([5]; Human immunodeficiency virus 1, MT2, passage 60, AZT concentration 32 μM, D67N, K70R, T215I, A371A/V, Q509L, read-out: IC50) was 56 µM, the IC50 ([5]; Human immunodeficiency virus 1, MT2, passage 65, AZT concentration 32 μM, D67N, K70R, T215I/F, A371A/V, Q509L) was ≥ 810 µM and the Fold-Resistance ([5]; passage 25, mutations: None) was 4.1 fold. It also gave a Fold-Resistance ([5]; passage 30, D67D/N, K70K/R) of 26 fold, a Fold-Resistance ([5]; passage 35, D67N, K70R) of 66 fold and a Fold-Resistance ([5]; passage 40, D67N, K70R, A371A/V, Q509Q/L) of 86 fold. For the same compound, the Fold-Resistance ([5]; passage 55, D67N, K70R, T215T/I, A371A/V, Q509Q/L) was 255 fold, the Fold-Resistance ([5]; passage 60, D67N, K70R, T215I, A371A/V, Q509L) was 489 fold and the “reduction of AZT susceptibility” value [6] was 30 fold. The “greater AZT resistance conferred by T215F than T215I” value ([7]; T215F versus T215I) was ~25 fold and the “AZT resistance conferred by A371V and Q509L, alone or together” value ([7]; in the absence of TAMs) was “did not confer AZT resistance”.
